Assay results as given in ChEMBL document CHEMBL1177848, “Synthesis of novel 6,6a,7,8-tetrahydro-5H-naphtho[1,2-e]pyrimido[4,5-b][1,4]diazepines under microwave irradiation as potential anti-tumor agents” (2010).
Calls of active or inactive are those of the source. The calls are words filed in the database; no cut-off is given here.

Columns and labels:
[1] = test system: SR; test: Growth inhibition of human SR cells after 48 hrs by sulforhodamine B assay; type: functional
[2] = test system: NCI-H226; test: Growth inhibition of human NCI-H226 cells after 48 hrs by sulforhodamine B assay; type: functional; conditions: NCI-H226, 48 h
[3] = test system: NCI-H522; test: Growth inhibition of human NCI-H522 cells after 48 hrs by sulforhodamine B assay; type: functional; conditions: NCI-H522, 48 h
[4] = test system: HCT-116; test: Growth inhibition of human HCT116 cells after 48 hrs by sulforhodamine B assay; type: functional; conditions: HCT-116, 48 h
[5] = test system: HCT-15; test: Growth inhibition of human HCT15 cells after 48 hrs by sulforhodamine B assay; type: functional; conditions: HCT-15, 48 h
[6] = test system: HT-29; test: Growth inhibition of human HT-29 cells after 48 hrs by sulforhodamine B assay; type: functional; conditions: HT-29, 48 h
[7] = test system: SW-620; test: Growth inhibition of human SW620 cells after 48 hrs by sulforhodamine B assay; type: functional; conditions: SW-620, 48 h
[8] = test system: SF-295; test: Growth inhibition of human SF295 cells after 48 hrs by sulforhodamine B assay; type: functional; conditions: SF-295, 48 h
[9] = test system: U-251; test: Growth inhibition of human U251 cells after 48 hrs by sulforhodamine B assay; type: functional; conditions: U-251, 48 h
[10] = test system: LOX IMVI; test: Growth inhibition of human LOXIMVI cells after 48 hrs by sulforhodamine B assay; type: functional
[11] = test system: MDA-MB-435; test: Growth inhibition of human MDA-MB-435 cells after 48 hrs by sulforhodamine B assay; type: functional; conditions: MDA-MB-435, 48 h
[12] = test system: IGROV-1; test: Growth inhibition of human IGROV1 cells after 48 hrs by sulforhodamine B assay; type: functional; conditions: IGROV-1, 48 h
[13] = test system: OVCAR-3; test: Growth inhibition of human OVCAR-3 cells after 48 hrs by sulforhodamine B assay; type: functional; conditions: OVCAR-3, 48 h
[14] = test system: OVCAR-4; test: Growth inhibition of human OVCAR4 cells after 48 hrs by sulforhodamine B assay; type: functional; conditions: OVCAR-4, 48 h
[15] = test system: RXF 393; test: Growth inhibition of human RXF393 cells after 48 hrs by sulforhodamine B assay; type: functional; conditions: RXF 393, 48 h
[16] = test system: SN12C; test: Growth inhibition of human SN12C cells after 48 hrs by sulforhodamine B assay; type: functional
[17] = test system: MCF7; test: Growth inhibition of human MCF7 cells after 48 hrs by sulforhodamine B assay; type: functional; conditions: MCF7, 48 h
[18] = test system: BT-549; test: Growth inhibition of human BT549 cells after 48 hrs by sulforhodamine B assay; type: functional; conditions: BT-549, 48 h
[19] = test system: T47D; test: Growth inhibition of human T47D cells after 48 hrs by sulforhodamine B assay; type: functional
[20] = test system: SR; test: Growth inhibition of human SR cells at 1 uM after 48 hrs by sulforhodamine B assay; type: functional, cell-based
[21] = test system: CCRF-CEM; test: Growth inhibition of human CCRF-CEM cells at 1 uM after 48 hrs by sulforhodamine B assay; type: functional, cell-based
[22] = test system: MOLT-4; test: Growth inhibition of human MOLT4 cells at 1 uM after 48 hrs by sulforhodamine B assay; type: functional, cell-based
[23] = test system: HOP-92; test: Growth inhibition of human HOP92 cells at 1 uM after 48 hrs by sulforhodamine B assay; type: functional, cell-based
[24] = test system: NCI-H226; test: Growth inhibition of human NCI-H226 cells at 1 uM after 48 hrs by sulforhodamine B assay; type: functional, cell-based
[25] = test system: NCI-H460; test: Growth inhibition of human NCI-H460 cells at 1 uM after 48 hrs by sulforhodamine B assay; type: functional, cell-based
[26] = test system: NCI-H522; test: Growth inhibition of human NCI-H522 cells at 1 uM after 48 hrs by sulforhodamine B assay; type: functional, cell-based
[27] = test system: HOP-62; test: Growth inhibition of human HOP62 cells at 1 uM after 48 hrs by sulforhodamine B assay; type: functional, cell-based
[28] = test system: NCI-H322M; test: Growth inhibition of human […] cells at 1 uM after 48 hrs by sulforhodamine B assay; type: functional, cell-based
[29] = test system: COLO 205; test: Growth inhibition of human COLO205 cells at 1 uM after 48 hrs by sulforhodamine B assay; type: functional, cell-based
[30] = test system: HCT-116; test: Growth inhibition of human HCT116 cells at 1 uM after 48 hrs by sulforhodamine B assay; type: functional, cell-based
[31] = test system: HCT-15; test: Growth inhibition of human HCT15 cells at 1 uM after 48 hrs by sulforhodamine B assay; type: functional, cell-based
[32] = test system: KM12; test: Growth inhibition of human KM12 cells at 1 uM after 48 hrs by sulforhodamine B assay; type: functional, cell-based
[33] = test system: SF-539; test: Growth inhibition of human SF539 cells at 1 uM after 48 hrs by sulforhodamine B assay; type: functional, cell-based
[34] = test system: SF-268; test: Growth inhibition of human SF268 cells at 1 uM after 48 hrs by sulforhodamine B assay; type: functional, cell-based
[35] = test system: SF530; test: Growth inhibition of human SF530 cells at 1 uM after 48 hrs by sulforhodamine B assay; type: functional, cell-based
[36] = test system: Malme-3M; test: Growth inhibition of human MALME-3M cells at 1 uM after 48 hrs by sulforhodamine B assay; type: functional, cell-based
[37] = test system: MDA-MB-435; test: Growth inhibition of human MDA-MB-435 cells at 1 uM after 48 hrs by sulforhodamine B assay; type: functional, cell-based
[38] = test system: IGROV-1; test: Growth inhibition of human IGROV1 cells at 1 uM after 48 hrs by sulforhodamine B assay; type: functional, cell-based
[39] = test system: OVCAR-4; test: Growth inhibition of human OVCAR4 cells at 1 uM after 48 hrs by sulforhodamine B assay; type: functional, cell-based
[40] = test system: CAKI-1; test: Growth inhibition of human Caki1 cells at 1 uM after 48 hrs by sulforhodamine B assay; type: functional, cell-based
[41] = test system: RXF 393; test: Growth inhibition of human RXF393 cells at 1 uM after 48 hrs by sulforhodamine B assay; type: functional, cell-based
[42] = test system: SN12C; test: Growth inhibition of human SN12C cells at 1 uM after 48 hrs by sulforhodamine B assay; type: functional, cell-based
[43] = test system: TK-10; test: Growth inhibition of human TK10 cells at 1 uM after 48 hrs by sulforhodamine B assay; type: functional, cell-based
[44] = test system: UO-31; test: Growth inhibition of human UO31 cells at 1 uM after 48 hrs by sulforhodamine B assay; type: functional, cell-based
[45] = test system: DU-145; test: Growth inhibition of human DU145 cells at 1 uM after 48 hrs by sulforhodamine B assay; type: functional, cell-based
[46] = test system: T47D; test: Growth inhibition of human T47D cells at 1 uM after 48 hrs by sulforhodamine B assay; type: functional, cell-based
[47] = test system: Hs-578T; test: Growth inhibition of human Hs 578T cells at 1 uM after 48 hrs by sulforhodamine B assay; type: functional, cell-based
[48] = read-out: LC50 (the source's name)

Compound: Nc1nc(N)c2c(n1)NC(c1ccc(F)cc1)C1CCc3ccccc3C1=N2 (stereo unspecified)
- GI50 [1]: 1.65 µM
- LC50 [1]: 12.5 µM
- GI50 [2]: 5.97 µM
- LC50 [2]: 74.4 µM
- GI50 [3]: 5.66 µM
- LC50 [3]: 58 µM
- GI50 [4]: 3.04 µM
- LC50 [4]: 34.5 µM
- GI50 [5]: 3.99 µM
- LC50 [5]: 43 µM
- GI50 [6]: 3.84 µM
- CC50 [6, 48]: 38.7 µM
- GI50 [7]: 4.87 µM
- LC50 [7]: 42.9 µM
- GI50 [8]: 8.64 µM
- LC50 (50% lethal concentration) [8]: 59.7 µM
- GI50 [9]: 4.29 µM
- LC50 [9]: 44.1 µM
- GI50 [10]: 3.98 µM
- LC50 [10]: 43 µM
- GI50 [11]: 2.84 µM
- LC50 (concentration killing 50% of cells) [11]: 35.1 µM
- GI50 [12]: 7.79 µM
- LC50 (concentration killing 50% of cells) [12]: 63.9 µM
- GI50 [13]: 4.15 µM
- LC50 (lethal concentration, 50% cell kill) [13]: 43.2 µM
- GI50 [14]: 3.98 µM
- LC50 (50% lethal concentration) [14]: 50.2 µM
- GI50 [15]: 5.48 µM
- LC50 (50% lethal concentration) [15]: 60.4 µM
- GI50 [16]: 7.8 µM
- CC50 [16, 48]: 50.9 µM
- GI50 [17]: 2.67 µM
- LC50 [17]: 36.3 µM
- GI50 [18]: 3.89 µM
- CC50 [18, 48]: 43.5 µM
- GI50 [19]: 3.86 µM
- CC50 [19, 48]: 62.9 µM
- growth inhibition (GI) [20]: inactive
- growth inhibition (GI) [21]: inactive
- growth inhibition (GI) [22]: inactive
- growth inhibition (GI) [23]: inactive
- growth inhibition (GI) [24]: inactive
- growth inhibition (GI) [25]: inactive
- growth inhibition (GI) [26]: inactive
- growth inhibition (GI) [27]: inactive
- growth inhibition (GI) [28]: inactive
- growth inhibition (GI) [29]: inactive
- growth inhibition (GI) [30]: inactive
- growth inhibition (GI) [31]: inactive
- growth inhibition (GI) [32]: inactive
- growth inhibition (GI) [33]: inactive
- growth inhibition (GI) [34]: inactive
- growth inhibition (GI) [35]: inactive
- growth inhibition (GI) [36]: inactive
- growth inhibition (GI) [37]: inactive
- growth inhibition (GI) [38]: inactive
- growth inhibition (GI) [39]: inactive
- growth inhibition (GI) [40]: inactive
- growth inhibition (GI) [41]: inactive
- growth inhibition (GI) [42]: inactive
- growth inhibition (GI) [43]: inactive
- growth inhibition (GI) [44]: inactive
- growth inhibition (GI) [45]: inactive
- growth inhibition (GI) [46]: inactive
- growth inhibition (GI) [47]: inactive
